This note sets out measurements from patent US7985745B2, “Method for pain treatment” (Abbott Laboratories, priority 2006, dated 2011).

The test concerns osteoarthritis pain. The experiment in a line: MIA-induced knee joint osteoarthritis model, hind limb grip force. In kind it is in vivo, rat. The settings on record: grip force 20 days after MIA, % return to normalcy vs naïve group. As for the experimental part: Unilateral knee joint osteoarthritis was induced in rats by a single intra-articular (i.a.) injection of sodium monoiodoacetate (MIA) (Sigma-Aldrich, St. Louis, Mo.) (3 mg in 50 ul sterile isotonic saline) into the right knee joint cavity under light (1-3%) isoflurane anesthesia.
Pain behavior was assessed by measurement of hind limb grip force (GF) in adult osteoarthritic rats. Following the unilateral injection of MIA (male Sprague Dawley, 325-350 g, tested at 20 days following MIA injection), a behavioral measure of activity-induced pain was carried out. Measurements of the peak hind limb grip force were conducted by recording the maximum compressive force (CFmax), in grams of force, exerted on a hind limb strain gauge setup, in a commercially available grip force measurement system (Columbus Instruments, Columbus, Ohio).
During testing, each rat was gently restrained by grasping it around its rib cage and then allowed to grasp the wire mesh frame attached to the strain gauge. The experimenter then moved the animal in a rostral-to-caudal direction until the grip was broken. Each rat was sequentially tested twice at approximately 2-3 min interval to obtain a raw mean grip force (CFmax). This raw mean grip force data was in turn converted to a maximum hindlimb cumulative compressive force (CFmax), as the grams of force/kg of body weight, for each animal.
For evaluating the compound effects, the hind limb grip force was conducted 20 days following the intra-articular injection of MIA. A group of age-matched naïve (not injected with MIA) animals was added as a comparator to the drug-dosed groups. The vehicle control response for each group of MIA-treated animals was defined as the 0% response (0% effect), whereas the naïve control group was defined as the normal response and as 100% effect. The % effects for each dose group was expressed as % return of response to normalcy, compared to the naïve group. That is, the % effect=(Treatment CFmax−Vehicle CFmax)/[…]]×100). All experiments evaluating drug effects in this model were conducted in a randomized blinded fashion.

On to `CN1CCN(C(=O)c2cc3cc(Cl)ccc3[nH]2)CC1` [Example 3, reference compound], for which the “% Effect” value (100 micromole/kg i.p.) was 21% and the “% Effect” value (250 micromole/kg i.p.) is reported as 47%.
